Values of other authors in publication PMC4010828 (mBio, 2014).

Tested on: sensitive E. coli cells

Substance: microcin C (MRTGNAN; C-terminal adenylate, aminopropyl phosphoramidate) [McC]
- Concentration that inhibits the growth of sensitive E. coli cells: low micromolar concentrations
